Assay results taken from PubChem BioAssay (NCI).
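1) Cells in 96-well plates. 2) Compound, 48 h, 5 concentrations. 3) Linear interpolation between surrounding doses. 4) Unreached endpoint = highest concentration. GI50 = concentration required for 50% inhibition of growth. Definition used: TGI = concentration required for complete inhibition of growth.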

Columns and labels:
Test in all cases: NCI anticancer screen, dose series, 48 h
A498 renal = tested on: A498 renal
KM12 colon = tested on: KM12 colon
U251 CNS = tested on: U251 CNS
SF-295 CNS = tested on: SF-295 CNS
T-47D breast = tested on: T-47D breast
UACC-257 melanoma = tested on: UACC-257 melanoma
SR leukemia = tested on: SR leukemia
LOX IMVI melanoma = tested on: LOX IMVI melanoma
HCT-15 colon = tested on: HCT-15 colon
786-0 renal = tested on: 786-0 renal
CAKI-1 renal = tested on: CAKI-1 renal
OVCAR-5 ovarian = tested on: OVCAR-5 ovarian
RPMI-8226 leukemia = tested on: RPMI-8226 leukemia
SK-MEL-2 melanoma = tested on: SK-MEL-2 melanoma
SF-268 CNS = tested on: SF-268 CNS
EKVX NSCLC = tested on: EKVX NSCLC
NCI-H23 lung = tested on: NCI-H23 lung
NCI-H522 lung = tested on: NCI-H522 lung
NCI/ADR-RES ovarian = tested on: NCI/ADR-RES ovarian
TK-10 renal = tested on: TK-10 renal
MDA-MB-231 breast = tested on: MDA-MB-231 breast
HS 578T breast = tested on: HS 578T breast
UO-31 renal = tested on: UO-31 renal
SF-539 CNS = tested on: SF-539 CNS
NCI-H226 lung = tested on: NCI-H226 lung
HOP-62 NSCLC = tested on: HOP-62 NSCLC
HT29 colon = tested on: HT29 colon
NCI-H460 lung = tested on: NCI-H460 lung
BT-549 breast = tested on: BT-549 breast
IGROV1 ovarian = tested on: IGROV1 ovarian
SNB-19 CNS = tested on: SNB-19 CNS
MOLT-4 leukemia = tested on: MOLT-4 leukemia
SN12C renal = tested on: SN12C renal
UACC-62 melanoma = tested on: UACC-62 melanoma
SK-MEL-5 melanoma = tested on: SK-MEL-5 melanoma
HL-60(TB) leukemia = tested on: HL-60(TB) leukemia
HCC-2998 colon = tested on: HCC-2998 colon
SW-620 colon = tested on: SW-620 colon
COLO 205 colon = tested on: COLO 205 colon
M14 melanoma = tested on: M14 melanoma
HCT-116 colon = tested on: HCT-116 colon
MDA-MB-435 = tested on: MDA-MB-435
OVCAR-4 ovarian = tested on: OVCAR-4 ovarian
SNB-75 CNS = tested on: SNB-75 CNS
ACHN renal = tested on: ACHN renal
HOP-92 NSCLC = tested on: HOP-92 NSCLC
MALME-3M melanoma = tested on: MALME-3M melanoma
PC-3 prostate = tested on: PC-3 prostate
OVCAR-8 ovarian = tested on: OVCAR-8 ovarian
CCRF-CEM leukemia = tested on: CCRF-CEM leukemia
SK-OV-3 ovarian = tested on: SK-OV-3 ovarian
K-562 leukemia = tested on: K-562 leukemia
RXF 393 renal = tested on: RXF 393 renal
A549 NSCLC = tested on: A549 NSCLC
SK-MEL-28 melanoma = tested on: SK-MEL-28 melanoma
OVCAR-3 ovarian = tested on: OVCAR-3 ovarian
DU-145 prostate = tested on: DU-145 prostate

SMILES: C=CCOC1=CC(=O)c2ccccc2C1=O
- GI50 (A498 renal): 1.42 µM
- TGI (A498 renal): 19.8 µM
- GI50 (KM12 colon): 3.23 µM
- TGI (KM12 colon): 9.26 µM
- GI50 (U251 CNS): 2.71 µM
- TGI (U251 CNS): 6.65 µM
- GI50 (SF-295 CNS): 2.12 µM
- TGI (SF-295 CNS): 4.75 µM
- GI50 (T-47D breast): 2.52 µM
- TGI (T-47D breast): 7.85 µM
- GI50 (UACC-257 melanoma): 1.66 µM
- TGI (UACC-257 melanoma): 3.72 µM
- GI50 (SR leukemia): 2.24 µM
- TGI (SR leukemia): 7.61 µM
- GI50 (LOX IMVI melanoma): 1.71 µM
- TGI (LOX IMVI melanoma): 3.65 µM
- GI50 (HCT-15 colon): 2.1 µM
- TGI (HCT-15 colon): 4.64 µM
- GI50 (786-0 renal): 4.88 µM
- TGI (786-0 renal): 15.6 µM
- GI50 (CAKI-1 renal): 15.8 µM
- TGI (CAKI-1 renal): 68.7 µM
- GI50 (OVCAR-5 ovarian): 2.38 µM
- TGI (OVCAR-5 ovarian): 5.46 µM
- GI50 (RPMI-8226 leukemia): 3.2 µM
- GI50 (SK-MEL-2 melanoma): 2.34 µM
- TGI (SK-MEL-2 melanoma): 4.46 µM
- GI50 (SF-268 CNS): 4.21 µM
- TGI (SF-268 CNS): 14.5 µM
- GI50 (EKVX NSCLC): 4.75 µM
- TGI (EKVX NSCLC): 26.9 µM
- GI50 (NCI-H23 lung): 1.76 µM
- TGI (NCI-H23 lung): 3.41 µM
- GI50 (NCI-H522 lung): 2.05 µM
- TGI (NCI-H522 lung): 3.9 µM
- GI50 (NCI/ADR-RES ovarian): 2.68 µM
- TGI (NCI/ADR-RES ovarian): 7 µM
- GI50 (TK-10 renal): 15.4 µM
- TGI (TK-10 renal): 28.9 µM
- GI50 (MDA-MB-231 breast): 5.27 µM
- TGI (MDA-MB-231 breast): > 100 µM
- GI50 (HS 578T breast): 4.58 µM
- TGI (HS 578T breast): 43.2 µM
- GI50 (UO-31 renal): 2.25 µM
- TGI (UO-31 renal): 7.4 µM
- GI50 (SF-539 CNS): 2.37 µM
- TGI (SF-539 CNS): 6.01 µM
- GI50 (NCI-H226 lung): 1.88 µM
- TGI (NCI-H226 lung): 4.12 µM
- GI50 (HOP-62 NSCLC): 1.82 µM
- TGI (HOP-62 NSCLC): 3.43 µM
- GI50 (HT29 colon): 2.39 µM
- TGI (HT29 colon): 5.53 µM
- GI50 (NCI-H460 lung): 11.6 µM
- TGI (NCI-H460 lung): 31.1 µM
- GI50 (BT-549 breast): 11.1 µM
- TGI (BT-549 breast): 23.2 µM
- GI50 (IGROV1 ovarian): 4.34 µM
- TGI (IGROV1 ovarian): 13.9 µM
- GI50 (SNB-19 CNS): 12.9 µM
- TGI (SNB-19 CNS): 29.2 µM
- GI50 (MOLT-4 leukemia): 5.36 µM
- TGI (MOLT-4 leukemia): 40.4 µM
- GI50 (SN12C renal): 2.75 µM
- TGI (SN12C renal): 6.45 µM
- GI50 (UACC-62 melanoma): 2.01 µM
- TGI (UACC-62 melanoma): 4.05 µM
- GI50 (SK-MEL-5 melanoma): 1.63 µM
- TGI (SK-MEL-5 melanoma): 3.01 µM
- GI50 (HL-60(TB) leukemia): 2.75 µM
- TGI (HL-60(TB) leukemia): 6.61 µM
- GI50 (HCC-2998 colon): 8.59 µM
- TGI (HCC-2998 colon): 21.9 µM
- GI50 (SW-620 colon): 2.31 µM
- TGI (SW-620 colon): 4.84 µM
- GI50 (COLO 205 colon): 1.7 µM
- TGI (COLO 205 colon): 3.29 µM
- GI50 (M14 melanoma): 2.11 µM
- TGI (M14 melanoma): 4.35 µM
- GI50 (HCT-116 colon): 2.68 µM
- TGI (HCT-116 colon): 6.69 µM
- GI50 (MDA-MB-435): 1.94 µM
- TGI (MDA-MB-435): 3.64 µM
- GI50 (OVCAR-4 ovarian): 1.57 µM
- TGI (OVCAR-4 ovarian): 2.95 µM
- GI50 (SNB-75 CNS): 2.11 µM
- TGI (SNB-75 CNS): 4.08 µM
- GI50 (ACHN renal): 3.23 µM
- TGI (ACHN renal): 11.9 µM
- GI50 (HOP-92 NSCLC): 4.42 µM
- TGI (HOP-92 NSCLC): 15.4 µM
- GI50 (MALME-3M melanoma): 1.89 µM
- TGI (MALME-3M melanoma): 3.54 µM
- GI50 (PC-3 prostate): 4.29 µM
- TGI (PC-3 prostate): 24.5 µM
- GI50 (OVCAR-8 ovarian): 3.37 µM
- TGI (OVCAR-8 ovarian): 12.9 µM
- GI50 (CCRF-CEM leukemia): 4.37 µM
- TGI (CCRF-CEM leukemia): 41.1 µM
- GI50 (SK-OV-3 ovarian): 3.59 µM
- TGI (SK-OV-3 ovarian): 12.3 µM
- GI50 (K-562 leukemia): 3.62 µM
- TGI (K-562 leukemia): 16.5 µM
- GI50 (RXF 393 renal): 2.45 µM
- TGI (RXF 393 renal): 6.03 µM
- GI50 (A549 NSCLC): 2.12 µM
- TGI (A549 NSCLC): 4.85 µM
- GI50 (SK-MEL-28 melanoma): 2.38 µM
- TGI (SK-MEL-28 melanoma): 4.44 µM
- GI50 (OVCAR-3 ovarian): 2.51 µM
- TGI (OVCAR-3 ovarian): 5.44 µM
- GI50 (DU-145 prostate): 2.11 µM
- TGI (DU-145 prostate): 3.72 µM
